The supplement of paper PMC11451515

System: SEM cells
Test: cell viability relative to DMSO control; higher = less cytotoxic
Settings: 48 h
Method in brief: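 Library compounds in DMSO were pin-dosed into 1536-well plates (5 μl) holding NOMO1 or SEM (500 cells/well) or P12-Ichikawa (1000 cells/well) leukemia cells, across an 11-point threefold series of 47 μM to 0.79 nM. Each cell line had been adapted for at least four passages in each medium. CellTiter-Glo One luminescence was read after 48 h at 37°C. Viability is the per-plate percentage relative to DMSO wells, with cell-free wells as background.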

[1] = HPLM + 10% dialyzed FBS, 0.000781 µM
[2] = HPLM + 10% dialyzed FBS, 0.00234 µM
[3] = HPLM + 10% dialyzed FBS, 0.00702 µM
[4] = HPLM + 10% dialyzed FBS, 0.0211 µM
[5] = HPLM + 10% dialyzed FBS, 0.0632 µM
[6] = HPLM + 10% dialyzed FBS, 0.19 µM
[7] = HPLM + 10% dialyzed FBS, 0.569 µM
[8] = HPLM + 10% dialyzed FBS, 1.71 µM
[9] = HPLM + 10% dialyzed FBS, 5.12 µM
[10] = HPLM + 10% dialyzed FBS, 15.4 µM
[11] = HPLM + 10% dialyzed FBS, 46.1 µM
[12] = RPMI 5 mM glucose + 10% FBS, 0.000781 µM
[13] = RPMI 5 mM glucose + 10% FBS, 0.00234 µM
[14] = RPMI 5 mM glucose + 10% FBS, 0.00702 µM
[15] = RPMI 5 mM glucose + 10% FBS, 0.0211 µM
[16] = RPMI 5 mM glucose + 10% FBS, 0.0632 µM
[17] = RPMI 5 mM glucose + 10% FBS, 0.19 µM
[18] = RPMI 5 mM glucose + 10% FBS, 0.569 µM
[19] = RPMI 5 mM glucose + 10% FBS, 1.71 µM
[20] = RPMI 5 mM glucose + 10% FBS, 5.12 µM
[21] = RPMI 5 mM glucose + 10% FBS, 15.4 µM
[22] = RPMI 5 mM glucose + 10% FBS, 46.1 µM
[23] = RPMI 5 mM glucose + 10% dialyzed FBS, 0.000781 µM
[24] = RPMI 5 mM glucose + 10% dialyzed FBS, 0.00234 µM
[25] = RPMI 5 mM glucose + 10% dialyzed FBS, 0.00702 µM
[26] = RPMI 5 mM glucose + 10% dialyzed FBS, 0.0211 µM
[27] = RPMI 5 mM glucose + 10% dialyzed FBS, 0.0632 µM
[28] = RPMI 5 mM glucose + 10% dialyzed FBS, 0.19 µM
[29] = RPMI 5 mM glucose + 10% dialyzed FBS, 0.569 µM
[30] = RPMI 5 mM glucose + 10% dialyzed FBS, 1.71 µM
[31] = RPMI 5 mM glucose + 10% dialyzed FBS, 5.12 µM
[32] = RPMI 5 mM glucose + 10% dialyzed FBS, 15.4 µM
[33] = RPMI 5 mM glucose + 10% dialyzed FBS, 46.1 µM

C[C@@H]1COCCN1C\2=C\C(=O)N\3CC[C@H](N(CC4=CN=CC(=C4)Cl)C3=N2)C(F)(F)F
cell viability [1]: 88%
cell viability [2]: 83.8%
cell viability [3]: 91.6%
cell viability [4]: 97.5%
cell viability [5]: 85.9%
cell viability [6]: 97.8%
cell viability [7]: 91.5%
cell viability [8]: 94%
cell viability [9]: 78.8%
cell viability [10]: 43.2%
cell viability [11]: 24.8%
cell viability [12]: 109%
cell viability [13]: 109%
cell viability [14]: 120%
cell viability [15]: 96.4%
cell viability [16]: 115%
cell viability [17]: 117%
cell viability [18]: 122%
cell viability [19]: 88.5%
cell viability [20]: 74.4%
cell viability [21]: 43.4%
cell viability [22]: 25.1%
cell viability [23]: 89.6%
cell viability [24]: 92.3%
cell viability [25]: 96.9%
cell viability [26]: 90.9%
cell viability [27]: 83.4%
cell viability [28]: 98.7%
cell viability [29]: 107%
cell viability [30]: 89.2%
cell viability [31]: 71.2%
cell viability [32]: 42.4%
cell viability [33]: 34.1%

Cc1cccc(-c2nn(C(=S)Nc3ccccc3)cc2-c2ccnc3ccccc23)n1
cell viability [12]: 117%
cell viability [13]: 124%
cell viability [14]: 139%
cell viability [15]: 131%
cell viability [16]: 152%
cell viability [17]: 130%
cell viability [18]: 121%
cell viability [19]: 126%
cell viability [20]: 110%
cell viability [21]: 118%
cell viability [22]: 42.2%

CC(C)(C)C(=O)Oc1ccc([S+](=O)([O-])Nc2ccccc2C(=O)NCC(=O)O)cc1
cell viability [1]: 107%
cell viability [2]: 106%
cell viability [3]: 111%
cell viability [4]: 109%
cell viability [5]: 116%
cell viability [6]: 122%
cell viability [7]: 74.3%
cell viability [8]: 58.9%
cell viability [9]: 123%
cell viability [10]: 128%
cell viability [11]: 124%
cell viability [12]: 95.5%
cell viability [13]: 93.9%
cell viability [14]: 88.9%
cell viability [15]: 92.8%
cell viability [16]: 104%
cell viability [17]: 107%
cell viability [18]: 95.1%
cell viability [19]: 48.8%
cell viability [20]: 91.6%
cell viability [21]: 96.7%
cell viability [22]: 90.4%
cell viability [23]: 106%
cell viability [24]: 99.3%
cell viability [25]: 104%
cell viability [26]: 123%
cell viability [27]: 94.6%
cell viability [28]: 116%
cell viability [29]: 93.7%
cell viability [30]: 50.6%
cell viability [31]: 98.8%
cell viability [32]: 109%
cell viability [33]: 124%

CC(C)n1nc(-c2ccc3oc(N)nc3c2)c2c(N)ncnc21
cell viability [1]: 87.7%
cell viability [2]: 73.7%
cell viability [3]: 63.3%
cell viability [4]: 56.4%
cell viability [5]: 44.5%
cell viability [6]: 38.5%
cell viability [7]: 31.8%
cell viability [8]: 29.9%
cell viability [9]: 23.7%
cell viability [10]: 18.6%
cell viability [11]: 3.79%
cell viability [12]: 106%
cell viability [13]: 101%
cell viability [14]: 70.3%
cell viability [15]: 62.4%
cell viability [16]: 59.3%
cell viability [17]: 42.4%
cell viability [18]: 38.3%
cell viability [19]: 29.1%
cell viability [20]: 25.1%
cell viability [21]: 4.15%
cell viability [22]: 3.72%
cell viability [23]: 78.2%
cell viability [24]: 78.8%
cell viability [25]: 70.9%
cell viability [26]: 54.8%
cell viability [27]: 52.6%
cell viability [28]: 44%
cell viability [29]: 39.7%
cell viability [30]: 36.1%
cell viability [31]: 28.6%
cell viability [32]: 15.8%
cell viability [33]: 4.72%

c1cc(CN2CCCNCCNCCCNCC2)ccc1CN1CCCNCCNCCCNCC1
cell viability [1]: 83.6%
cell viability [2]: 85.7%
cell viability [3]: 86.8%
cell viability [4]: 20.1%
cell viability [5]: 94.3%
cell viability [6]: 101%
cell viability [7]: 89.8%
cell viability [8]: 96.9%
cell viability [9]: 106%
cell viability [10]: 116%
cell viability [11]: 110%
cell viability [12]: 70.8%
cell viability [13]: 93.3%
cell viability [14]: 83.8%
cell viability [15]: 13.6%
cell viability [16]: 85.7%
cell viability [17]: 92.9%
cell viability [18]: 87.1%
cell viability [19]: 90.8%
cell viability [20]: 94.1%
cell viability [21]: 91.5%
cell viability [22]: 89%
cell viability [23]: 94.1%
cell viability [24]: 84.4%
cell viability [25]: 94.2%
cell viability [26]: 20%
cell viability [27]: 117%
cell viability [28]: 118%
cell viability [29]: 106%
cell viability [30]: 115%
cell viability [31]: 102%
cell viability [32]: 125%
cell viability [33]: 119%

[NH2][Pt]([NH2])([Cl])[Cl]
cell viability [1]: 93.8%
cell viability [2]: 96%
cell viability [3]: 94.5%
cell viability [4]: 95.2%
cell viability [5]: 107%
cell viability [6]: 99.4%
cell viability [7]: 92.2%
cell viability [8]: 89.6%
cell viability [9]: 79.1%
cell viability [10]: 70.9%
cell viability [11]: 62.1%
cell viability [12]: 82.9%
cell viability [13]: 105%
cell viability [14]: 101%
cell viability [15]: 93.2%
cell viability [16]: 102%
cell viability [17]: 98.8%
cell viability [18]: 118%
cell viability [19]: 71%
cell viability [20]: 70.9%
cell viability [21]: 65.1%
cell viability [22]: 52.4%
cell viability [23]: 85%
cell viability [24]: 85.3%
cell viability [25]: 88.1%
cell viability [26]: 89.5%
cell viability [27]: 86.8%
cell viability [28]: 97.8%
cell viability [29]: 88.1%
cell viability [30]: 74.3%
cell viability [31]: 65.9%
cell viability [32]: 55.3%
cell viability [33]: 51.8%

O=C(NC[C@H](O)CN1CCc2ccccc2C1)c1cc(NC2COC2)ncn1
cell viability [1]: 58.8%
cell viability [2]: 84.9%
cell viability [3]: 91.5%
cell viability [4]: 81.6%
cell viability [5]: 86.3%
cell viability [6]: 75%
cell viability [7]: 68.5%
cell viability [8]: 71.6%
cell viability [9]: 78.4%
cell viability [10]: 68.6%
cell viability [11]: 26.9%
cell viability [12]: 71.9%
cell viability [13]: 145%
cell viability [14]: 124%
cell viability [15]: 141%
cell viability [16]: 132%
cell viability [17]: 121%
cell viability [18]: 108%
cell viability [19]: 108%
cell viability [20]: 114%
cell viability [21]: 88.5%
cell viability [22]: 47.2%
cell viability [23]: 59%
cell viability [24]: 107%
cell viability [25]: 100%
cell viability [26]: 91.1%
cell viability [27]: 73.8%
cell viability [28]: 81%
cell viability [29]: 80.5%
cell viability [30]: 75.2%
cell viability [31]: 84.2%
cell viability [32]: 65.1%
cell viability [33]: 25.2%

CCC(=O)OCC(=O)[C@@]1(OC(=O)CC)[C@@H](C)C[C@H]2[C@@H]3CCC4=CC(=O)C=C[C@]4(C)[C@@]3(F)[C@@H](O)C[C@@]21C
cell viability [1]: 78.1%
cell viability [2]: 99.1%
cell viability [3]: 93.2%
cell viability [4]: 98.5%
cell viability [5]: 100%
cell viability [6]: 102%
cell viability [7]: 84.2%
cell viability [8]: 90.7%
cell viability [9]: 91.8%
cell viability [10]: 70.2%
cell viability [11]: 61.2%
cell viability [12]: 104%
cell viability [13]: 114%
cell viability [14]: 116%
cell viability [15]: 114%
cell viability [16]: 116%
cell viability [17]: 95.6%
cell viability [18]: 87.3%
cell viability [19]: 71.5%
cell viability [20]: 79.4%
cell viability [21]: 69.9%
cell viability [22]: 50.3%
cell viability [23]: 116%
cell viability [24]: 115%
cell viability [25]: 126%
cell viability [26]: 112%
cell viability [27]: 115%
cell viability [28]: 88.5%
cell viability [29]: 92.6%
cell viability [30]: 75.3%
cell viability [31]: 69.7%
cell viability [32]: 65.9%
cell viability [33]: 48.8%
